Assay results reported in patent US20060009432A1, “Use of neurosteroids to treat neuropathic pain” (priority 2004, published 2006).

Test system: chronic constriction injury (CCI) of the sciatic nerve, rats
Assay: Cold allodynia (acetone application) in chronic constriction injury model
Assay type: in vivo, rat
Conditions: neuropathic pain model as disclosed in Example 2
Experimental: Unilateral sciatic nerve injury was produced under deep anesthesia with i.p injection of sodium pentobarbital (Mebumal, 60 mg/kg), as described by Bennett and Xie (Pain, 33, 87-107(1988)). The common sciatic nerve was exposed and freed for about 10 mm at mid-thigh level. Four ligatures (Ethicon, 4.0 plain gut) were tied loosely around the nerve with about 1-mm spacing creating a chronic constriction injury (CCl), and the incision was closed.
Brisk foot withdrawal in response to acetone application was measured based on the method described by Choi et al. The acetone bubble was gently brought in touch with the plantar surface around the center, and the acetone quickly spread over the central part of the plantar surface of the foot. Applications were made five times (once every 5 min) to each paw. The score for each application was recorded as follows: foot withdrawal was scored as positive (1) and lack of withdrawal as negative (O). The total score (0 to 5) was taken as index for cold sensitivity of the foot […]. This approximates pain from a non-noxious stimulus, i.e. allodynia.
Cold allodynia response was measured 15, 30, 45, 60, 90 and 120 minutes after i.p. administration of ganaxolone (at 1 mg/kg, 3 mg/kg or 10 mg/kg) as well as prior to administration of the neurosteroid and prior to infliction of the neural injury. Table 1 provides the resulting measurement of cold allodynia response in groups of six rats per dosage level. The abbreviation “s.e.m.” means standard error mean.

With `C[C@]12CC[C@@H](O)C[C@@H]1CC[C@H]1[C@@H]3CC[C@H](C(=O)CO)[C@@]3(C)CC(=O)[C@@H]12` [Alphadolone, reference compound] the “Activity in the neuropathic pain model” value was “inactive”.
